The results in this text go back to patent publication US9309276B2, “Synthetic lipid A derivative” (University of Georgia Research Foundation, Inc., priority 2007, dated 2016).

Where two headings read alike, the source gives them in different places.

Common to all, as to assay type: cell-based
One assay deals with RAW 264.7 γNO(−) cells. Put plainly: Cytokine induction and ELISAs in mouse macrophages (RAW 264.7 γNO(−) cells). The conditions noted are these: for EC50: Example II, ELISA, best-fit value; for EC50 / TNF-α and IFN-β production, dose response (in words): supernatant, 5.5 h; for TNF-α and IFN-β production, dose response (in words): wide range of concentrations. The procedure:
Mouse macrophages (RAW 264.7 γNO(−) cells) were exposed over a wide range of concentrations to compounds 1-5 and E. coli 055:B5 LPS. After 5.5 hours, the supernatants were harvested and examined for mouse TNF-α and IFN-β using a commercial and in-house developed capture ELISA assay, respectively. Potencies (EC50, concentration producing 50% activity) and efficacies (maximal level of production) were determined by fitting the dose-response curves to a logistic equation using PRISM software. […] It has also been shown that removal of the KDO moieties by mild acidic treatment reduces cellular responses (Demchenko et al., J. Am. Chem. Soc. 2003, 125, 6103-6112).
Having established the EC50 values of TNF-α and IFN-β secretion by compounds 1-5 and E. coli 055:B5 LPS, attention was focused on IL-6, IP-10, RANTES, and IL-1β responses. Thus, the previously harvested supernatants were analyzed for these cytokines using capture ELISA assays (FIG. 4, Table 1). For IL-6, IP-10, and RANTES, a short incubation time of 5.5 hrs was sufficient for detection. To achieve significant IL-1β secretion, the incubation had to be extended to 24 hrs. […] IL-1β is expressed as a pro-protein (pro-IL-1β), which is cleaved by caspase-1 into its active form (IL-1β), which is then secreted. Indeed, analyzing IL-1β of the cell lysates by Western blotting confirmed that it was present as a pro-protein (data not shown). TNF-α is also produced as a pro-protein, which is proteolitically cleaved by tumor necrosis factor-α converting enzyme (TACE) (Skotnicki and Levin, Annu. Rep. Med. Chem. 2003, 38, 153-162; Duffy et al., Thromb. Haemost. 2003, 89, 622-631). […] Furthermore, for each of the synthetic compounds and LPS, EC50 values of secreted TNF-α and intracellular pro-IL-1β were very similar. However, EC50 values for secreted mature IL-1β were larger by as much as 100-fold.
RAW 264.7 γNO(−) cells were plated on the day of the exposure assay as 2×10^5 cells/well in 96-well tissue culture plates (Nunc). Cells were incubated with different stimuli for 5.5 and 24 hours in replicates of five. Culture supernatants were then collected, pooled, and stored frozen (−80° C.) until assayed for cytokine production. After removal of the supernatant, cells were lysed by adding PBS containing Tween 20 (0.01%) and BSA (1%) in the same volume as that of the supernatant and sonicating for 5 min. The cell lysates were pooled and stored frozen (−80° C.) until assayed for cytokine production.
All cytokine ELISAs were performed in 96-well MaxiSorp plates (Nunc). Cytokine DuoSet ELISA Development Kits (R&D Systems) were used for the cytokine quantification of mouse TNF-α, IL-6, IP-10, RANTES, and IL-1β according to the manufacturer's instructions. The absorbance was measured at 450 nm with wavelength correction set to 540 nm using a microplate reader (BMG Labtech). Concentrations of IFN-β in culture supernatants were determined as follows. ELISA MaxiSorp plates were coated with rabbit polyclonal antibody against mouse IFN-β (PBL Biomedical Laboratories). IFN-β in standards and samples was allowed to bind to the immobilized antibody. Rat anti-mouse IFN-β antibody (USBiological) was then added, producing an antibody-antigen-antibody “sandwich”. Next, horseradish peroxidase (HRP) conjugated goat anti-rat IgG (H+L) antibody (Pierce) and a chromogenic substrate for HRP 3,3′,5,5′-tetramethylbenzidine (TMB; Pierce) were added. After the reaction was stopped, the absorbance was measured at 450 nm with wavelength correction set to 540 nm. All cytokine values are presented as the means±SD of triplicate measurements, with each experiment being repeated three times.
Concentration-response data were analyzed using nonlinear least-squares curve fitting in Prism (GraphPad Software, Inc.). […] The Hillslope was set at 1 to be able to compare the EC50 values of the different inducers. […]
Background: In an ELISA, binding on a coated surface is turned into a signal by an enzyme label.

Another assay addresses T1, mouse TLR2 (Mus musculus, UniProt Q9QUN7).
T1 construct: host or cells: HEK 293T
Put plainly: NF-κB activation in HEK 293T cells stably transfected with mouse TLR2. Conditions: 103/104 at 0.1, 1 and 10 μg mL−1; Pam3CysSK4 1 μg mL−1; 4 h. The method, then: (§1) Induction of NF-κB activation was determined in triplicate cultures of HEK 293T cells stably transfected with human or mouse (a) TLR4/MD2/CD14 and (b) TLR2 and transiently transfected with pELAM-Luc and pRL-TK plasmids. Forty-four h post-transfection, cells were treated with (B) E. coli LPS (10 ng mL^−1), (C) Pam3CysSK4 (1 μg mL^−1), (D, E and F) 103 (0.1, 1 and 10 μg mL^−1, respectively), (G, H and I) 104 (0.1, 1 and 10 μg mL^−1, respectively) or (A) were left untreated (control). Forty-eight h post-transfection, NF-κB activation was determined by firefly luciferase activity relative to Renilla luciferase activity. n.a. indicates not analyzed.
(§2) To examine the ability of the synthetic compounds to induce activation of NF-κB, HEK 293T cells were employed that were stably transfected with various immune receptors and transiently transfected with a plasmid containing the reporter gene pELAM-Luc (NF-κB-dependent firefly luciferase reporter vector) and a plasmid containing the control gene pRL-TK (Renilla luciferase control reporter vector) (FIG. 11). […] Although compound 104 is a weak activator of mouse TLR4, it could not induce the secretion of cytokines.
(§3) The day before transfection, HEK 293T wild type cells and HEK 293T cells stably transfected with human and murine TLR4/MD2/CD14 and human and murine TLR2 were plated in 96-well tissue culture plates (16,000 cells/well). The next day, cells were transiently transfected using PolyFect Transfection Reagent (Qiagen) with expression plasmids pELAM-Luc (NF-κB-dependent firefly luciferase reporter plasmid, 50 ng/well) (Chow et al., J. Biol. Chem., 1999, 274, 10689-10692) and pRL-TK (Renilla luciferase control reporter vector, 1 ng/well; Promega) as an internal control to normalize experimental variations. […] The luciferase activity was measured using the Dual-Luciferase Reporter Assay System (Promega) according to the manufacturer's instructions and a combination luminometer/fluorometer microplate reader (BMG Labtech). […]

The next assay has as its target T2, human TLR2 (Homo sapiens, UniProt O60603).
T2 construct: host or cells: HEK 293T
Put plainly: NF-κB activation in HEK 293T cells stably transfected with human TLR2. Conditions: 103/104 at 0.1, 1 and 10 μg mL−1; Pam3CysSK4 1 μg mL−1; 4 h. The procedure:
as §1, §2, §3

[1] abbreviates: at the highest concentration tested.

T2 sequence (O60603 21-784): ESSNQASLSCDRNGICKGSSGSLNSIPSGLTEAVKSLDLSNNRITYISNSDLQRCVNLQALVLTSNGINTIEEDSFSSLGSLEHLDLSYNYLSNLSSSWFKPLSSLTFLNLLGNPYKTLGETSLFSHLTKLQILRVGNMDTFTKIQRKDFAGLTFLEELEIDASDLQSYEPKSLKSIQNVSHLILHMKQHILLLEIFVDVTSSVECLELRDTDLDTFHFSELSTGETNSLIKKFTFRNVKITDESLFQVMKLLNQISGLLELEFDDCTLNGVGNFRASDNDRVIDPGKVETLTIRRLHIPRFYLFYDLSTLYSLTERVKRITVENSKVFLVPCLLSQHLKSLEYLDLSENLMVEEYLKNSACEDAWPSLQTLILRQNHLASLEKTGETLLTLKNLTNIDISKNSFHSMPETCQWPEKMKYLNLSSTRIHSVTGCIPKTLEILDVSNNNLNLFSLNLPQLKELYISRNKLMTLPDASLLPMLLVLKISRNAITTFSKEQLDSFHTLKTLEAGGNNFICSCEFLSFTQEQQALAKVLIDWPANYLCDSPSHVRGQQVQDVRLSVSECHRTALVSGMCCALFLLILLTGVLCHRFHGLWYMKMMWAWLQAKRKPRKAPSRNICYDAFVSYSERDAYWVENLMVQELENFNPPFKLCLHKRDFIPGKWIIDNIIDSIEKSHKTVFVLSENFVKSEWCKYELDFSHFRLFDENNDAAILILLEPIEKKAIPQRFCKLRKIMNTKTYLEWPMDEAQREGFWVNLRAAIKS
T1 sequence (Q9QUN7 25-784): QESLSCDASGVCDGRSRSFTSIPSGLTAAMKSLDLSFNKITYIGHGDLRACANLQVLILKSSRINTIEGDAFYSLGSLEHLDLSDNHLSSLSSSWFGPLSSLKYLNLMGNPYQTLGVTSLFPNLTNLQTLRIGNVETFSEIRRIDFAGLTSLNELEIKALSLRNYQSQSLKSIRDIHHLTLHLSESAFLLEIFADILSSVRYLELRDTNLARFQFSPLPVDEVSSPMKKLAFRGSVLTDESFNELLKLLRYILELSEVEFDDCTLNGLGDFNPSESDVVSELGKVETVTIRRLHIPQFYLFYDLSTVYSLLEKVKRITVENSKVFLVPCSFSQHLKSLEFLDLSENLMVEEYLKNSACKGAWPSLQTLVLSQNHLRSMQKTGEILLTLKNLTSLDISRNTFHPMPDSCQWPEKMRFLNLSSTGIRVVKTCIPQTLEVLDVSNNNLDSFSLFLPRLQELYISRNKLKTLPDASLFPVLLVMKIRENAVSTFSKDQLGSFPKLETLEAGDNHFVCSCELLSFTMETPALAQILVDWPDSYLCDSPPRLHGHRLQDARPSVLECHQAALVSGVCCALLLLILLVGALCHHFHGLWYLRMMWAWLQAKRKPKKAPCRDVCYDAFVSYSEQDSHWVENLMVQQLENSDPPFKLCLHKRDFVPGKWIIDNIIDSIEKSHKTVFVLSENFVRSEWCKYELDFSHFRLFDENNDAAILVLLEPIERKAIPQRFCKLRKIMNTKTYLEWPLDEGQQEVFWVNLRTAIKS

Broadly, the EC50 is the midpoint of the concentration-response curve. Take “3-O—[(R)-3-Hydroxy-dodecanoyl]-2-deoxy-2-[(R)-3-dodecanoyloxy-tetradecanoylamino]-(R)-D-glucopyranosyl-(1→6)-2-[(R)-3-hydroxy-dodecanoylamino]-3-O—[(R)-3-dodecanoyloxy-dodecanoyl]-2-deoxy-α-D-glucopyranoside 1,4′-bisphosphate [lipid A 51]”: the EC50 in the assay with RAW 264.7 γNO(−) cells (read-out: EC50 IFN-β) worked out at 4 nM; with RAW 264.7 γNO(−) cells (read-out: EC50 TNF-α), 1.5 nM.

In the case of `CCCCCCCCCCCCCCCC(=O)O[C@H](CCCCCCCCCCC)CC(=O)N[C@H]1[C@@H](OP(=O)(O)O)O[C@H](CO[C@@H]2O[C@H](CO)[C@@H](OP(=O)(O)O)[C@H](OC(=O)C[C@@H](CCCCCCCCCCC)OC(=O)CCCCCCCCCCCCC)[C@H]2NC(=O)C[C@@H](CCCCCCCCCCC)OC(=O)CCCCCCCCCCC)[C@@H](O)[C@@H]1OC(=O)C[C@H](O)CCCCCCCCCCC` [Lipid A 3, 6-O-{2-Deoxy-2-[(R)-3-dodecanoyloxy-tetradecanoylamino]-3-O—[(R)-3-tetradecanoyloxy-tetradecanoyl]-β-D-glucopyranosyl}-2-deoxy-2-[(R)-3-hexadecanoyl-tetradecanoylamino]-3-O—[(R)-3-hydroxy-tetradecanoyl]-α-D-glucopyranose 1,4′-bisphosphate], in the assay with RAW 264.7 γNO(−) cells (setting [1]), the “formation of IL-6, RANTES, and IL-1β” value is given as “no formation”; the “production of TNF-α, IFN-β, and IP-10” value is “induced the production”. Besides, the “TNF-α and IFN-β production, dose response (in words)” value in the assay with RAW 264.7 γNO(−) cells is “only a partial response at the highest concentration tested”.

`CCCCCCCCCCCCCCCC(=O)O[C@H](CCCCCCCCCCC)CC(=O)N[C@@H]1[C@@H](OC(=O)C[C@H](O)CCCCCCCCC)[C@H](O)[C@@H](CO[C@@H]2O[C@H](CO)[C@@H](O)[C@H](OC(=O)C[C@@H](CCCCCCCCC)OC(=O)CCCCCCCCCCC)[C@H]2NC(=O)C[C@@H](CCCCCCCCCCC)OC(=O)CCCCCCCCCCC)O[C@@H]1O` [Lipid A 5, 6-O-{2-Deoxy-3-O—[(R)-3-dodecanoyloxy-dodecanoyl]-2-[(R)-3-dodecanoyloxy-tetradecanoylamino]-β-D-glucopyranosyl}-2-deoxy-2-[(R)-3-hexadecanoyloxy-tetredecanoylamino]-3-O—[(R)-3-hydroxy-dodecanoyl]-α-D-glucopyranose]: the “TNF-α and IFN-β production, dose response (in words)” value in the assay on RAW 264.7 γNO(−) cells is “inactive”.

On to “(3-Deoxy-α-D-manno-oct-2-ulopyranosyl)onate-(2->6)-3-O—[(R)-3-hydroxy-dodecanoyl]-2-deoxy-2-[(R)-3-dodecanoyloxy-tetradecanoyl]-(R)-D-glucopyranosyl-(1→6)-3-O—[(R)-3-hydroxy-dodecanoyl]-2-deoxy-2-[(R)-3-dodecanoyloxy-tetradecanoyl]-α-D-glucopyranose 1,4′-biphosphate [lipid A 53]”, for which the EC50 in the assay on RAW 264.7 γNO(−) cells (read-out: EC50 IFN-β) came to 0.2 nM; in the assay on RAW 264.7 γNO(−) cells (read-out: EC50 TNF-α), 0.092 nM.

For Pam3CysSK4 [reference compound], the “NF-κB activation, mouse TLR2” value at mouse TLR2 is reported as “able to activate”. The “NF-κB activation, human TLR2” value at human TLR2 is given as “able to activate”.
